Values after ≈ are worked out from the molar mass of the structure shown.
How the values were obtained:
Experiment in all cases: Minimum Inhibitory Concentration (MIC), agar dilution, standard strains
S. aureus 77 = type: cell-based, Staphylococcus aureus; conditions: Table 1, Mueller-Hinton agar, 37° C., 20 hours; for MIC: Staphylococcus aureus, 77, read-out: Minimum Inhibitory Concentration (MIC), S. aureus 77
Description: (§1) Minimum Inhibitory Concentration (MIC)
(§2) The effectiveness of the compound according to the present invention was determined by obtaining Minimum Inhibitory Concentration (MIC) of the compounds prepared by the above Examples (I-1 to I-33) and vancomycin, which is the known compound having a potent activity against gram-positive strains, as the control drug against the standard strains. Specifically, Minimum Inhibitory Concentration was obtained by diluting the test material with a double dilution method, dispersing them in Mueller-Hinton agar medium, inoculating each of the test strain having 10^7 cfu (colny forming unit) in an amount of 2:1 to the medium and then incubating them at 37° C. for 20 hours.

S. aureus 241 = type: cell-based, Staphylococcus aureus; conditions: Table 1, Mueller-Hinton agar, 37° C., 20 hours; for MIC: Staphylococcus aureus, 241, read-out: Minimum Inhibitory Concentration (MIC), S. aureus 241
Description: as §1, §2

[1] = test system: Staphylococcus aureus giorgio; type: cell-based; conditions: Table 1, Mueller-Hinton agar, 37° C., 20 hours; for MIC: Staphylococcus aureus, read-out: Minimum Inhibitory Concentration (MIC), Staphylococcus aureus giorgio
Description: as §1, §2

E. faecalis L239 = type: cell-based; conditions: Table 1, Mueller-Hinton agar, 37° C., 20 hours; for MIC: Enterococcus faecalis, L239, read-out: Minimum Inhibitory Concentration (MIC), E. faecalis L239
Description: as §1, §2

S. epidermidis R005 = type: cell-based; conditions: Table 1, Mueller-Hinton agar, 37° C., 20 hours; for MIC: Staphylococcus epidermidis, R005, read-out: Minimum Inhibitory Concentration (MIC), S. epidermidis R005
Description: as §1, §2

Compound | Minimum Inhibitory Concentration (MIC), S. aureus 77 (S. aureus 77) | Minimum Inhibitory Concentration (MIC), S. aureus 241 (S. aureus 241) | Minimum Inhibitory Concentration (MIC), Staphylococcus aureus giorgio [1] | Minimum Inhibitory Concentration (MIC), E. faecalis L239 (E. faecalis L239) | Minimum Inhibitory Concentration (MIC), S. epidermidis R005 (S. epidermidis R005) | MIC (S. aureus 77) | MIC (S. aureus 241) | MIC [1] | MIC (E. faecalis L239) | MIC (S. epidermidis R005)
Nc1nc(SCSC2=C(C(=O)O)N3C(=O)[C@@H](NC(=O)CSc4cc(Cl)ccc4Cl)[C@H]3SC2)c2c([n+]1N)CCC2 [Example I-11, (6R,7R)-1 ,2-diamino-4-[({(E)-3-[2-carboxy-7-({2-[(2,5-dichlorophenyl)sulf-anyl]acetyl}amino)-8-oxo-5-thia-1-azabicyclo[4.2.0]oct-2-en-3-yl]sulfanyl}methyl)sulfan-yl]-6,7-dihyd ro-5H-cyclopenta[d]pyrimidin-1-ium] | 0.063 :g/ml | 1 :g/ml | <0.008 :g/ml | 0.25 :g/ml | 0.063 :g/ml | – | – | – | – | –
Cc1c(N)nc([S+]([O-])CSC2=C(C(=O)O)N3C(=O)[C@@H](NC(=O)CSc4cc(Cl)ccc4Cl)[C@H]3SC2)[n+](N)c1N (stereo partly drawn) [Example I-23, (6R,7R)-1,4,6-triamino-2-[({[(2-carboxy-7-({2-[(2,5-dichlorophenyl)sulfan-yl]acetyl}amino)-8-oxo-5-thia-1-azabicyclo[4.2.0]oct-2-en-3-yl)]sulfanyl}methyl)sulfin-yl]-5-methylpyri midin-1-ium] | 8 :g/ml | >32 :g/ml | 0.5 :g/ml | 16 :g/ml | 8 :g/ml | – | – | – | – | –
Nc1nc(O)cc(SCSC2=C(C(=O)O)N3C(=O)[C@@H](NC(=O)CSc4cc(Cl)ccc4Cl)[C@H]3SC2)n1 [Example I-2, (6R,7R)-3-({[(2-amino-6-hydroxy-4-pyrimidinyl)sulfanyl]methyl}sulfanyl)-7-({2-[(2,5-dic hlorophenyl)sulfanyl]acetyl}amino)-8-oxo-5-thia-1-azabicyclo[4.2.0]oct-2-ene-2-carboxylic acid] | – | – | – | – | – | 0.13 µg/mL (≈ 0.214 µM) | 1 µg/mL (≈ 1.65 µM) | < 0.008 µg/mL | 0.25 µg/mL (≈ 0.412 µM) | 0.063 µg/mL (≈ 0.104 µM)
Nc1cc[n+](N)c(SCSC2=C(C(=O)O)N3C(=O)[C@@H](NC(=O)CSc4cc(Cl)ccc4Cl)[C@H]3SC2)n1 [Example I-7, 1,4-diamino-2-[({[(6R,7R)-2-carboxy-7-({2-[(2,5-dichlorophenyl)sulfanyl]ac-etyl}amino)-8-oxo-5-thia-1-azabicyclo[4.2.0]oct-2-en-3-yl)sulfanyl}methyl)sulfanyl]pyri-midin-1-ium] | 0.13 :g/ml | 2 :g/ml | <0.008 :g/ml | 0.13 :g/ml | 0.063 :g/ml | – | – | – | – | –
Nc1ncnc(SCSC2=C(C(=O)O)N3C(=O)[C@@H](NC(=O)CSc4cc(Cl)ccc4Cl)[C@H]3SC2)c1N [Example I-17, (6R,7R)-3-({[(5,6-diamino-4-pyrimidinyl)sulfanyl]methyl}sulfanyl)-7-({2-[(2,5-dichlorophenyl)sulfanyl]acetyl}amino)-8-oxo-5-thia-1-azabicyclo[4.2.0]oct-2-ene-2-carboxylic acid] | – | – | – | – | – | 0.13 µg/mL (≈ 0.215 µM) | 2 µg/mL (≈ 3.3 µM) | 0.016 µg/mL (≈ 0.0264 µM) | 0.5 µg/mL (≈ 0.826 µM) | 0.25 µg/mL (≈ 0.413 µM)
Nc1cc(SCSC2=C(C(=O)O)N3C(=O)[C@@H](NC(=O)CSc4cc(Cl)ccc4Cl)[C@H]3SC2)nc(N)n1 [Example I-1, (6R,7R)-3-({[(2,6-diamino-4-pyrimidinyl)sulfanyl]methyl}sulfanyl)-7-({2-[(2,5-dichlorophenyl)sulfanyl]acetyl}amino)-8-oxo-5-thia-1-azabicyclo[4.2.0]oct-2-ene-2-carboxylic acid] | – | – | – | – | – | 0.063 µg/mL (≈ 0.104 µM) | 1 µg/mL (≈ 1.65 µM) | < 0.008 µg/mL | 0.25 µg/mL (≈ 0.413 µM) | 0.063 µg/mL (≈ 0.104 µM)
Nc1nc(O)cc(SCSC2=C(C(=O)O)N3C(=O)[C@@H](NC(=O)CSc4c(Cl)cccc4Cl)[C@H]3SC2)n1 [Example I-3, (6R,7R)-3-({[(2-amino-6-hydroxy-4-pyrimidinyl)sulfanyl]methyl}sulfanyl)-7-({2-[(2,6-dic hlorophenyl)sulfanyl]acetyl}amino)-8-oxo-5-thia-1-azabicyclo[4.2.0]oct-2-ene-2-carboxylic acid] | – | – | – | – | – | 0.25 µg/mL (≈ 0.412 µM) | 8 µg/mL (≈ 13.2 µM) | < 0.008 µg/mL | 0.5 µg/mL (≈ 0.824 µM) | 0.13 µg/mL (≈ 0.214 µM)
CNc1[n+](C)c(N)nc(SCSC2=C(C(=O)O)N3C(=O)[C@@H](NC(=O)CSc4cc(Cl)ccc4Cl)[C@H]3SC2)[n+]1N [Example I-19, (6R,7R)-1,4-diamino-6-[({[2-carboxy-7-({2-[(2,5-dichlorophenyl)sulfany-1]acetyl}amino)-8-oxo-5-thia-1-azabicyclo[4.2.0]oct-2-en-3-yl]sulfanyl}methyl)sulfanyl]-3-methyl-2-(methylamino)-1,3,5-triazine-1,3-diium] | 4 :g/ml | 32 :g/ml | 0.063 :g/ml | 4 :g/ml | 2 :g/ml | – | – | – | – | –
(6R,7R)-2,4-diamino-6-[({[2-carboxy-7-({2-[(2,5-dichlorophenyl)sulfany-1]acetyl}amino)-8-oxo-5-thia-1-azabicyclo[4.2.0]oct-2-en-3-yl]sulfanyl}methyl)sulfanyl]-1-ethyl-1,3,5-tria zine-1,3-diium [Example I-20] | 1 :g/ml | 8 :g/ml | <0.008 :g/ml | 0.5 :g/ml | 0.5 :g/ml | – | – | – | – | –
Nc1cc(N)[n+](N)c(SCSC2=C(C(=O)O)N3C(=O)[C@@H](NC(=O)CSc4cc(Cl)ccc4Cl)[C@H]3SC2)n1 [Example I-10, (6R,7R)-1,4,6-triamino-2-[({[2-carboxy-7-({2-[(2,5-dichlorophenyl)sulfany-1]acetyl}amino)-8-oxo-5-thia-1-azabicyclo[4.2.0]oct-2-en-3-yl]sulfanyl}methyl)sulfanyl]p-yrimidin-1-iu m] | 0.25 :g/ml | 4 :g/ml | <0.008 :g/ml | 0.5 :g/ml | 0.13 :g/ml | – | – | – | – | –
CCSc1nc(C)cc(SCSC2=C(C(=O)O)N3C(=O)[C@@H](NC(=O)CSc4cc(Cl)ccc4Cl)[C@H]3SC2)n1 [Example I-12, (6R,7R)-7-({2-[(2,5-dichlorophenyl)sulfanyl]acetyl}amino)-3-[({[2-(ethylsul-fanyl)-6-methyl-4-pyrimidinyl]sulfanyl}methyl)sulfanyl]-8-oxo-5-thia-1-azabicyclo[4.2. 0]oct-2-ene-2-carboxylic acid] | 0.5 :g/ml | 4 :g/ml | 0.031 :g/ml | 0.25 :g/ml | 0.5 :g/ml | – | – | – | – | –
Nc1cc(SCSC2=C(C(=O)O)N3C(=O)[C@@H](NC(=O)CSc4cc(Cl)ccc4Cl)[C@H]3SC2)nc(O)n1 [Example I-4, (6R,7R)-3-({[(6-amino-2-hydroxy-4-pyrimidinyl)sulfanyl]methyl}sulfanyl)-7-({2-[(2,5-dic hlorophenyl)sulfanyl]acetyl}amino)-8-oxo-5-thia-1-azabicyclo[4.2.0]oct-2-ene-2-carboxylic acid] | – | – | – | – | – | 0.25 µg/mL (≈ 0.412 µM) | 4 µg/mL (≈ 6.59 µM) | < 0.008 µg/mL | 0.5 µg/mL (≈ 0.824 µM) | 0.25 µg/mL (≈ 0.412 µM)
CSc1nc(C)cc(SCSC2=C(C(=O)O)N3C(=O)[C@@H](NC(=O)CSc4cc(Cl)ccc4Cl)[C@H]3SC2)n1 [Example I-22, (6R,7R)-7-({2-[(2,5-dichlorophenyl)sulfanyl]acetyl}amino)-3-[({[6-methyl-2-(methylsulfanyl)-4-pyrimidinyl]sulfanyl}methyl)sulfanyl]-8-oxo-5-thia-1-azabicyclo[4.2. 0]oct-2-ene-2-carboxylic acid] | – | – | – | – | – | 0.5 µg/mL (≈ 0.787 µM) | 4 µg/mL (≈ 6.29 µM) | < 0.008 µg/mL | 0.25 µg/mL (≈ 0.393 µM) | 0.25 µg/mL (≈ 0.393 µM)

Reference: patent publication US20030166922A1, “Novel cephalosporin compounds and process for preparing the same” (priority 2000, published 2003)
